Results reported in patent publication US8957049B2, “Inhibitors of fatty acid amide hydrolase” (Infinity Pharmaceuticals, Inc., priority 2008, dated 2015).

What follows are molecules tested against T1, human FAAH (Homo sapiens, UniProt O00519) (assay: Human FAAH biochemical inhibition assay (AMC arachidonoyl amide fluorescence)). Conditions: Table A, read-out: Activity (Ki) of other boronic acids tested, Table A.
T1 construct: host or cells: COS-7 cells, transient transfection (FuGENE 6); 13,000 g membrane fraction solubilised in 1% Triton X-100
T1 sequence (O00519 1-579): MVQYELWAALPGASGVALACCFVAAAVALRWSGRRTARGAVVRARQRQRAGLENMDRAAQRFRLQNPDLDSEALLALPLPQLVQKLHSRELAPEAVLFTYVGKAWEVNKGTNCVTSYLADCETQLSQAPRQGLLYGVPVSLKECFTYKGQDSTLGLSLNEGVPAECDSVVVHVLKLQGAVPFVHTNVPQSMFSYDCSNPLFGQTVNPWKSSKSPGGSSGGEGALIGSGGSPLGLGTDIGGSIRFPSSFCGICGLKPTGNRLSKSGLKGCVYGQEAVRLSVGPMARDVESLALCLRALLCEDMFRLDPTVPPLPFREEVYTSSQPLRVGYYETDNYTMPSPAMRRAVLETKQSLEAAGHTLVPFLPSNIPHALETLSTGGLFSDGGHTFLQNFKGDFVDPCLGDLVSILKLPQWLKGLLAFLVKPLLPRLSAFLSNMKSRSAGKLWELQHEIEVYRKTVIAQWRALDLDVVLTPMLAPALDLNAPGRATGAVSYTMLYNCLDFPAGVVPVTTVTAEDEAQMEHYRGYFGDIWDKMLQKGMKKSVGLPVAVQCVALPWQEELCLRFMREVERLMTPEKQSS
Experimental: Exemplary compounds are set forth in the Examples provided below. Compounds were assayed as inhibitors of human FAAH using the method described in detail in Example 286.
The following assays may be used to determine the inhibition of FAAH by the compounds of the present invention: (1) a fluorescence-based assay for fatty acid amide hydrolase compatible with high-throughput screening as described in Manjunath et al., Analytical Biochemistry (2005) 343:143-151; and (2) a high-throughput screening for the discovery of inhibitors of fatty acid amide hydrolase using a microsome-based fluorescent assay. Wang et al., Biomolecular Screening (2006) 1-9.
COS-7 cells were split the day before, 1:5 into 150 mm×25 mm cell culture dishes (Corning Inc., Cat. No. 430599). Transient transfection took place at 30-40% confluency according to FuGENE 6 Transfection Reagent (Roche, Cat. No. 11814 443 001).
The FuGENE transfection 6 reagent (45 uL) was added to 1410 μL of media (DMEM, serum free without pen/strep) in a 15 mL conical tube and incubated at room temp for 5 minutes, followed by the addition of FAAH plasmid DNA (15 μg) (OriGene Cat. No. TC119221, Genbank Accession No. NM_001441.1, 0.67 ug/uL) and a further incubation of 15 minutes at room temperature. The resulting solution was added into one dish of 30-40% confluent COS-7 cells in a drop-wise manner. The COS-7 cell dish was subsequently incubated for 48 hours. The cells are then harvested.
Media was aspirated from the dishes and the cells rinsed with 10 mL PBS. The PBS was removed and 3 mL of PBS added to the dish. The dish was scraped to resuspend the cells, and the subsequent cell suspension collected into a 15 mL conical tube. The cells were pelleted by centrifugation at 1200 rpm for 5 minutes in a bench top centrifuge. PBS was removed and the cell pellet snap frozen in liquid nitrogen and stored at −80° C.
COS-7 Cells—FAAH Purification: • (1) Fractionation: Frozen cell pellets from transient transfections were thawed on ice and resuspended in 12.5 mM Hepes pH 8.0, 100 mM NaCl, 1 mM EDTA (10 mL/0.2 g cell pellet). The pellets were dounce homogenized and then sonicated to produce cell extract. The cell extract was subsequently centrifuged at 1000 g to remove cellular debris. The pellet was discarded and the supernatant centrifuged at 13,000 g for 20 minutes. The pellet contained membrane bound FAAH. The supernatant was discarded and the pellet resolubilized. • (2) Re-solubilization: The fraction of interest, (13,000 g, membrane fraction) was re-suspended in 2.3 mL re-suspension buffer (20 mM Hepes pH 7.8, 10% v/v Glycerol, 1 mM EDTA, 1% Triton X-100) and the sample incubated on ice for 1 hour and then centrifuged to remove any particulate matter. The supernatant containing solubilized human FAAH was aliquoted and snap frozen in liquid nitrogen and stored at −80° C. until use. • (3) Characterization: Protein Concentration determined by Bradford assay. • SDS gel and Western blot to confirm presence of FAAH • FAAH activity assay • Km determination—96-well assay • Linear dependence—96-well assay • Standard compound Ki determination—384-well assay
Rat FAAH biochemical assays were carried out in a 96 well flat bottom black non-treated polystyrene plates (Corning Costar Catalogue #3915). FAAH reaction buffer: 50 mM Hepes (pH 7.5), 1 mM EDTA, 0.2% Triton X-100. FAAH substrate—AMC Arachidonoyl Amide (Cayman Chemicals Company, Catalog #10005098). The reaction was read in an Envision microtiter plate reader [Excitation filter 355 nm (40 nm bandpass); Emmision filter 460 nm (25 nm bandpass)]. The raw fluorescence was plotted on the y axis and the inhibitor concentration on the x axis to give a dose response inhibition curve. The data was fitted to a single site competitive inhibition equation, fixing the Km for the rat and human enzyme to 12 μM and 9 μM respectively. […]
`OB(O)c1ccc(C(F)(F)F)nc1` showed a Ki of 100 to 1000 nM. For `Cc1cc(B2OC(C)(C)C(C)(C)O2)cnc1N1CCN(C)CC1`, the Ki was > 1000 nM. For `Cc1cc(B(O)O)cnc1N1CCOCC1`, the Ki was 100 to 1000 nM. With `OB(O)c1ccc(-c2ccc(F)cc2)nc1` the Ki was 10 to 100 nM. In the case of `CC(=O)NCc1ccc(B(O)O)cc1`, the Ki is reported as > 1000 nM. In the case of `CC(=O)Nc1ccc(B(O)O)cc1`, the Ki is reported as > 1000 nM. `COC(=O)Nc1ccc(B(O)O)cc1` was tested, and the Ki was > 1000 nM. `O=C(Nc1ccccn1)c1ccc(B(O)O)cc1` showed a Ki of 10 to 100 nM. Molecule `COCCNC(=O)c1ccc(B(O)O)cc1` has a Ki of 100 to 1000 nM. `O=S(=O)(c1ccc(B(O)O)cc1)n1cccc1` was tested, and the Ki was 10 to 100 nM. With `O=C(O)CCc1ccc(B(O)O)cc1` the Ki was > 1000 nM. With `OB(O)c1ccc(OCCn2ccnc2)cc1` the Ki was 100 to 1000 nM. In the case of `CCOC(=O)COc1ccc(B(O)O)cc1`, the Ki is reported as 100 to 1000 nM. In the case of `OCCCc1ccc(B(O)O)cc1`, the Ki is reported as 100 to 1000 nM. `O=C(NCCCO)c1ccc(B(O)O)cc1` was tested, and the Ki was > 1000 nM. `NNC(=O)CCc1ccc(B(O)O)cc1` was tested, and the Ki was 100 to 1000 nM.

Same assay, conditions: class given in each Example, read-out: Activity (Ki, inhibition of human FAAH)
Work on `OB(O)c1ccc(-c2ncc(-c3ccccc3)o2)cc1F` [Compound 1] yielded a Ki of 10 to 100 nM. `OB(O)c1ccc(-c2ncc(-c3ccccc3)o2)cc1` [Compound 2] showed a Ki of 10 to 100 nM. `OB(O)c1ccc(-c2ncc(-c3ccccc3)s2)cc1F` [Compound 3] was tested, and the Ki was > 1000 nM. With `OB(O)c1ccc(-c2nc(-c3ccccc3)c[nH]2)cc1F` [Compound 7] the Ki was > 1000 nM. `OB(O)c1ccc(-c2nc(CCc3ccccc3)c(-c3ccccc3)s2)cc1` [Compound 8] was tested, and the Ki was > 1000 nM. For `CCCCCc1nnc(-c2ccc(B(O)O)cn2)o1` [Compound 9], the Ki was ≤ 10 nM. `O=C1CCCN1CCc1nnc(-c2ccc(B(O)O)cc2)o1` [Compound 10] showed a Ki of 100 to 1000 nM. `Cc1nnc(-c2cc(C(F)(F)F)ccc2B(O)O)o1` [Compound 11] was tested, and the Ki was 100 to 1000 nM. Work on `OB(O)c1ccc(-c2nnc(-c3ccccc3)o2)nc1` [Compound 12] yielded a Ki of 10 to 100 nM. With `CCCc1nnc(-c2ccccc2B(O)O)o1` [Compound 13] the Ki was > 1000 nM. With `CCCc1nnc(-c2cc(OCCc3ccccc3)ccc2B(O)O)o1` [Compound 17] the Ki was ≤ 10 nM. In the case of `OB(O)c1ccc(OCCc2ccccc2)cc1-c1nnc(-c2ccco2)o1` [Compound 18], the Ki is reported as ≤ 10 nM. With `Cc1nnc(-c2cc(OCCc3ccccc3)ccc2B(O)O)o1` [Compound 19] the Ki was ≤ 10 nM. `OB(O)c1ccc(-c2nnc(CCC(F)(F)C(F)(F)F)o2)cc1` [Compound 20] was tested, and the Ki was ≤ 10 nM. In the case of `OB(O)c1ccc(-c2nnc(-c3cccnc3)o2)cc1` [Compound 21], the Ki is reported as ≤ 10 nM. In the case of `CCCc1nnc(-c2ccc(F)cc2B(O)O)o1` [Compound 22], the Ki is reported as > 1000 nM. `Cc1nc(Cc2nnc(-c3ccc(B(O)O)cc3)o2)cs1` [Compound 23] gave a Ki of 10 to 100 nM. With `CCCc1nc(-c2ccc(B(O)O)cc2)no1` [Compound 24] the Ki was ≤ 10 nM. `CCC/C=C/c1nnc(-c2ccc(B(O)O)cc2)o1` [Compound 25] was tested, and the Ki was ≤ 10 nM. With `CCCCCc1nnc(-c2ccc(B(O)O)c(F)c2)o1` [Compound 26] the Ki was ≤ 10 nM. `CCCCCc1nnc(-c2cc(B(O)O)cs2)o1` [Compound 27] was tested, and the Ki was ≤ 10 nM. For `Cc1nnc(/C=C/c2ccccc2B(O)O)o1` [Compound 28], the Ki was 100 to 1000 nM. In the case of `CCCCCc1nnc(-c2ccc(B(O)O)cc2Cl)o1` [Compound 29], the Ki is reported as ≤ 10 nM. With `CCCCCc1nnc(-c2ccc(B(O)O)cc2)o1` [Compound 30] the Ki was ≤ 10 nM. With `OB(O)c1ccccc1-c1nnc(-c2ccccc2)o1` [Compound 31] the Ki was > 1000 nM. With `CCC(C)CCc1nnc(-c2ccc(B(O)O)cc2)o1` (stereo not shown) [Compound 32] the Ki was ≤ 10 nM. With `OB(O)c1ccc(-c2nnc(CCC3CCCC3)o2)cc1` [Compound 33] the Ki was ≤ 10 nM. With `CCCCC(C)c1nnc(-c2ccc(B(O)O)cc2)o1` (stereo not shown) [Compound 34] the Ki was ≤ 10 nM. In the case of `OB(O)c1ccc(-c2nnc(CC3CCCC3)o2)cc1` [Compound 35], the Ki is reported as ≤ 10 nM. `OB(O)c1ccc(-c2nnc(CCC3CCCCC3)o2)cc1` [Compound 36] was tested, and the Ki was ≤ 10 nM. `CCCCCCc1nnc(-c2ccc(B(O)O)cc2)o1` [Compound 37] was tested, and the Ki was ≤ 10 nM. For `CC(C)CCCc1nnc(-c2ccc(B(O)O)cc2)o1` [Compound 38], the Ki was ≤ 10 nM. In the case of `CCCc1nnc(-c2ccc(B(O)O)cc2)o1` [Compound 39], the Ki is reported as ≤ 10 nM. `OB(O)c1ccc(-c2nnc(CCCC(F)(F)F)o2)cc1` [Compound 40] was tested, and the Ki was ≤ 10 nM. With `OB(O)c1ccc(-c2nnc(-c3cncc(F)c3)o2)cc1` [Compound 41] the Ki was 10 to 100 nM. With `CCCCc1nnc(-c2ccc(B(O)O)cc2)o1` [Compound 42] the Ki was ≤ 10 nM. In the case of `OB(O)c1ccc(-c2nnc(-c3cccc4c3OCCO4)o2)cc1` [Compound 43], the Ki is reported as ≤ 10 nM. In the case of `COc1cccc(-c2nnc(-c3ccc(B(O)O)cc3)o2)c1OC` [Compound 44], the Ki is reported as ≤ 10 nM. For `OB(O)c1ccc(-c2nnc(-c3ccc4c(c3)OCO4)o2)cc1` [Compound 45], the Ki was ≤ 10 nM. For `OB(O)c1ccc(-c2nnc(-c3cccc4c3OCC4)o2)cc1` [Compound 46], the Ki was ≤ 10 nM. With `OB(O)c1ccc(-c2nnc(-c3cccc(C(F)(F)F)c3)o2)cc1` [Compound 47] the Ki was ≤ 10 nM. `OB(O)c1ccc(-c2nnc(-c3cccc(C(F)(F)F)c3)s2)cc1` [Compound 48] was tested, and the Ki was ≤ 10 nM. For `OB(O)c1ccc(-c2nnc(-c3cccnc3)s2)cc1` [Compound 49], the Ki was ≤ 10 nM. For `OB(O)c1ccc(-c2nnc(-c3cccc4c3OCO4)s2)cc1` [Compound 50], the Ki was ≤ 10 nM. In the case of `Cn1ccc2c(-c3nnc(-c4ccc(B(O)O)cc4)o3)cccc21` [Compound 51], the Ki is reported as ≤ 10 nM. With `OB(O)c1ccc(-c2nnc(-c3cccc4c3OC(F)(F)O4)o2)cc1` [Compound 52] the Ki was ≤ 10 nM. `OB(O)c1ccc(-c2nnc(-c3cccc4c3OCO4)o2)cc1` [Compound 53] was tested, and the Ki was ≤ 10 nM. `Cn1cncc1-c1nnc(-c2ccc(B(O)O)cc2)o1` [Compound 54] gave a Ki of 10 to 100 nM. `OB(O)c1ccc(-c2nnc(Cc3ccccc3)o2)s1` [Compound 55] showed a Ki of 10 to 100 nM. Molecule `OB(O)c1ccc(-c2nnc(-c3ccccc3)o2)s1` [Compound 56] has a Ki of 10 to 100 nM. With `OB(O)c1ccc(-c2nnc(CCc3ccccc3)o2)cc1` [Compound 57] the Ki was ≤ 10 nM. `OB(O)c1csc(-c2nnc(CCc3ccccc3)o2)c1` [Compound 58] was tested, and the Ki was ≤ 10 nM. `OB(O)c1ccc(-c2nnc(Cc3ccsc3)o2)cc1` [Compound 59] was tested, and the Ki was ≤ 10 nM. With `CCCCCc1nnc(-c2coc(B(O)O)c2)o1` [Compound 60] the Ki was 10 to 100 nM. With `OB(O)c1csc(-c2nnc(Cc3ccccc3)o2)c1` [Compound 60] the Ki was ≤ 10 nM. `OB(O)c1csc(-c2nnc(-c3ccccc3)o2)c1` [Compound 61] was tested, and the Ki was 10 to 100 nM. `OB(O)c1ccc(-c2nnc(-c3ccccc3)s2)cc1` [Compound 62] was tested, and the Ki was ≤ 10 nM.
